For experiment [1], the target named is T1, HUMAN 5 LIPOXYGENASE (Homo sapiens, UniProt P09917).
T1 construct: A suspension of human neutrophils in buffer; endogenous in cells; host or cells: human neutrophils (PMNs) from venous blood of healthy volunteers
T1 sequence (P09917 1-674): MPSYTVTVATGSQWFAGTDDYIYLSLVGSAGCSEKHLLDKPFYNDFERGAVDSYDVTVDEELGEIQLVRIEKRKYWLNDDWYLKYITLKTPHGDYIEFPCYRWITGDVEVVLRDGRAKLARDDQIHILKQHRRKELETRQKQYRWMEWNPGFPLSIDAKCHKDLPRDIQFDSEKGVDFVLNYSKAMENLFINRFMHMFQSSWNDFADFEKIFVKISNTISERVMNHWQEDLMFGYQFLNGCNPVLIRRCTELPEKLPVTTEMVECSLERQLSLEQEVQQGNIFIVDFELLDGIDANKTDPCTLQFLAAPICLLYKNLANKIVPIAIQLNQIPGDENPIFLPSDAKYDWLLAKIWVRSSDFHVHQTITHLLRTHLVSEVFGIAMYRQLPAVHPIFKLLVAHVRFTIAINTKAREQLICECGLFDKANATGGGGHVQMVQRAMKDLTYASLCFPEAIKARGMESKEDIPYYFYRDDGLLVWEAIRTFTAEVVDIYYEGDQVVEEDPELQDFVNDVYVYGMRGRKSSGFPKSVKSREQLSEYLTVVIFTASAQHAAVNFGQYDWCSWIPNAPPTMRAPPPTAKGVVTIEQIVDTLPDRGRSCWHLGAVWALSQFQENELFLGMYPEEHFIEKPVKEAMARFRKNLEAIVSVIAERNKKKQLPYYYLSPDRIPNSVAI
Nature of the experiment: Biosynthesis of 5-HETE by human polymorphonuclear leukocytes in vitro (inhibition of human 5-lipoxygenase). The class given is cell-based. As to conditions: human neutrophils, A23187, 3 minutes at 30° C.; concentration at which 50% inhibition is observed; read-out: INHIBITION OF HUMAN 5 LIPOXYGENASE, I50. The procedure:
Protocol for the Biosynthesis of 5-HETE (5(S)-Hydroxyeicosatetraenoic Acid) by Human Polymorphonuclear Leukocytes In Vitro
(A) Isolation of Human Neutrophils
Freshly drawn venous blood from healthy human volunteers is mixed with 2 mM ethylenediamine tetraacetic acid, and is sedimented at 1×g over 6% dextran-saline. The leukocyte layer is aspirated, and the cells are concentrated by centrifugation and are layered over stacked Percoll® solutions, having densities of 1.072, 1.082 and 1.100, respectively. PMNs are isolated at the interface between the two densest layers after centrifugation at 400×g. Contaminating red blood cells are lysed by a short treatment of 0.16M ammonium chloride.
A suspension of human neutrophils in buffer is incubated for 3 minutes at 30° C. with (^14 C)-arachidonic acid (AA) and calcium ionophore A23187. Citric Acid (2M)/NDGA*(10 mM) is used to quench the reaction. Following the addition of a trace amount of (^3 H)-5-HETE together with an excess of unlabeled 5-HETE to each tube, the mixture is extracted with chloroform/methanol. The organic layer is washed with dilute hydrochloric acid and the total volume is transferred to glass tubes and dried in vacuo. The residue is dissolved in a small volume of chloroform and is spotted on silica gel TLC sheets, which are developed with an ethyl acetate/iso-octane/water/acetic acid solvent system (11/5/10/1 v/v). The 5-HETE spots are visualized under UV light, cut out and placed in scintillation vials for quantitation of radioactivity. After adjusting for the extraction efficiency, the amount (pmole) of (^14 C)-5-HETE in each of the tubes is calculated. The net pmoles of 5-HETE are obtained by subtracting the pmole of 5-HETE in the tubes containing buffer alone (blank) from the pmoles of 5-HETE in the tubes containing […]. The ability of the test compound to modulate the activity of this enzyme is determined by a decrease or increase in the net amount of 5-HETE produced. This assay is a modification of that described by Bach and Brashler for rat peritoneal cells: Bach, M., Brashler, J.: Ionophore A23187-Induced Production of SRS-A by Rat Peritoneal Cells In Vitro: Evidence for Production by Mononuclear Cells. J. Immunol. 120 998-1005 (1978).
*NDGA-nordihydroguaiaretic acid
(§1) If the percentage of inhibition exceeds 50%, the compounds are then evaluated in terms of response over a range of concentrations. From a plot of response against concentration, the I50 value is obtained. The I50 value is the concentration at which 50% inhibition is observed.

Experiment [2] deals with LTC4. Description: Antagonism of leukotriene C4 binding (guinea pig peripheral lung strips, contraction). The class given is cell-based. The settings on record: Cavia porcellus, leukotriene C4 usually 0.2 nM, 37° C., read-out: ANTAGONISM OF LTC4 BINDING, I50. As to the method:
Protocol for Antagonism of Leukotrines C-4 Binding
Peripheral strips of guinea pig lungs are prepared and hung in tissue baths according to the procedure described by Drazen et al. (Proc. Nat'l. Acad. Sci., U.S.A. 77, 4354-4358, 1980). Male guinea pigs (Charles River, 250-400 g) are sacrificed by cervical dislocation and their lungs rapidly removed. The individual lobes are dissected free and rinsed in Assay Buffer (118 mM NaCl, 5.4 mM KCl, 2.5 mM CaCl2, 25 mM […], 1 mM MgSO4, 1 mM NaH2 PO4, 11 mM glucose) which is continuously aerated with 95% oxygen/5% carbon dioxide. After the lobes are extensively rinsed, a strip of lung tissue, approximately 2 mm thick and 5-8 cm long, is cut off the sharpest and most peripheral portion of each lobe. The peripheral edge is cut almost completely around the outside of the lobe so that a U-shaped strip is obtained. These strips are rinsed in Assay Buffer and then connected with surgical silk thread to the support rods of the water jacketed tissue baths (10 ml chambers). The other ends of the strips are connected to Gould UC3 pressure transducers which had been previously calibrated. The tissue baths are aerated with 95% oxygen/5% carbon dioxide and maintained at 37° C. The tension on these strips are adjusted to 500 mg. The tissues are initially washed with fresh buffer every 5-10 minutes for about 30 minutes and thereafter washed with fresh assay buffer at least every 20 minutes.
After the tissue had been repeatedly washed and allowed to equilibrate in the tissue baths, they are challenged with 1 μM histamine to standardize the contractions for each tissue.
Responses of each tissue to a predetermined concentration (usually 0.2 nM) of leukotriene C4 are then obtained. Compounds are then tested for their ability to antagonize to leukotriene C4 immediately upon challenge.
as §1

`C#CCOc1ccc(CC(=O)N[C@H](Cc2ccccc2)C(=O)OC)cc1Cl` [3-Chloro-4-propargyloxyphenylacetyl-D-phenylalanine methyl ester]: the IC50 in experiment [1] was determined as 1.5 µM; in experiment [2], 12 µM.
For the molecule `C=CCOc1ccc(CC(=O)N(C)CCc2ccccc2)cc1Cl` [N--[4-Alloyoxy-3-chlorophenylacetyl]-N--methyl-2-phenylethylamine], the IC50 in experiment [1] was found to be 2 µM; in experiment [2], 3 µM.
Take `CCCOc1ccc(CC(=O)N[C@H](Cc2ccccc2)C(=O)OC)cc1Cl` [3-Chloro-4-n-propyloxyphenylacetyl-D-phenylalanine methyl ester]: the IC50 in experiment [1] amounted to 6 µM; in experiment [2], 9 µM.
The matching figures for `CN(CC(O)c1ccccc1)C(=O)Cc1ccc(OCCc2ccccc2)c(Cl)c1` (centres unmarked) [N--[3-Chloro-4-phenylethyloxyphenylacetyl]-N--methyl-2-hydroxy-2-phenyl-ethyl-amine]: 10 µM and 5 µM.

Source of the values: US4579866A, “Phenylacetamides as anti-allergy, anti-asthma and anti-inflammatory agents” (USV Pharmaceutical Corp., priority 1984, dated 1986).
